This assay concerns the target T1, TLR2/MD-2 interaction (Mus musculus, UniProt Q9QUN7).
T1 construct: endogenous in cells; host or cells: RAW264.7
Description: TLR2/MD-2 co-immunoprecipitation (negative control) in LPS-treated RAW264.7 cells. As to conditions: 1.0 μM; LPS 1 μg/ml; 24 hrs post-treatment. The format is cell-based. As to the method:
Co-Immunoprecipitation Assay RAW264.7 cells [treated with LPS (1 μg/ml), 3α,5α-THP (1 μM) or pregnenolone (1 μM)] were exposed to chemical protein crosslinking (Poulopoulos et al, 2009) at 24 hrs post-treatment. Briefly, the cells were incubated (20 min on ice) with 1 mM of the cleavable, membrane-permeable crosslinker DSP (Thermo Fisher Scientific, Cat. #PG82081). Rat VTA homogenates were incubated (20 min on ice) with 200 μM of DSP. The crosslinker was quenched in 1 M Tris buffer (pH 7.5) (to a final concentration of 10-20 mM), and the material was centrifuged at 21,000×g for 15 min. Proteins from the cells were extracted with Pierce IP Lysis Buffer (Thermo Fisher Scientific, Cat. #87787) supplemented with protease and phosphatase inhibitor cocktails (Sigma). Proteins from the VTA were extracted with CelLytic MT (dialyzable mild detergent, bicine and 150 mM NaCl; Sigma Aldrich, St. Louis, Mo., USA, Cat. #C3228) supplemented with protease and phosphatase inhibitor cocktails (Sigma) according to the manufacturers instructions. […]

T1 sequence (Q9QUN7 25-784): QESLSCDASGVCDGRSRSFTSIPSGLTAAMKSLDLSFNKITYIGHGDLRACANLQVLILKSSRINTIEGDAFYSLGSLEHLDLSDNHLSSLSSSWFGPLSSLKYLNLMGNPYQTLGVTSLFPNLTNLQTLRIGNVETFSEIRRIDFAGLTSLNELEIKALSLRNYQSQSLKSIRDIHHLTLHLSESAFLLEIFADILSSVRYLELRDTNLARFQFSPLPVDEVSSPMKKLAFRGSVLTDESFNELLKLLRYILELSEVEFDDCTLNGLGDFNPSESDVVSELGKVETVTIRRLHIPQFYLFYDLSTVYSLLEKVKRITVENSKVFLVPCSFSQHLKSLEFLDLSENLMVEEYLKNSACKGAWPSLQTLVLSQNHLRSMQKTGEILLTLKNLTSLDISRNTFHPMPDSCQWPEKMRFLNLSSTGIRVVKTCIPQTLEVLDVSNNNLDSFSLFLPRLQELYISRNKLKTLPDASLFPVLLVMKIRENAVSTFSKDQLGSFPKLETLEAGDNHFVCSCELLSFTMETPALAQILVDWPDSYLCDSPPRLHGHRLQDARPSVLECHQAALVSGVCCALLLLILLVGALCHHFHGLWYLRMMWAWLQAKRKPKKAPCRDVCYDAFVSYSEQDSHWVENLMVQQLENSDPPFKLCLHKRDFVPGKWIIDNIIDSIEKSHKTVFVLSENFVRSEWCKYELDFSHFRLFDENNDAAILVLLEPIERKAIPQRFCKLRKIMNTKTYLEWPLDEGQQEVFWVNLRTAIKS

Turning to `CC(=O)[C@H]1CC[C@H]2[C@@H]3CC[C@H]4C[C@H](O)CC[C@]4(C)[C@H]3CC[C@]12C` [3α,5α-THP, (3α,5α)3-hydroxypregnan-20-one], the TLR2/MD-2 co-immunoprecipitation result is given as “not altered”.
For the compound `CC(=O)[C@H]1CC[C@H]2[C@@H]3CC=C4C[C@@H](O)CC[C@]4(C)[C@H]3CC[C@]12C` [pregnenolone], the TLR2/MD-2 co-immunoprecipitation result is listed as “not altered”.

Values taken from patent publication US20210205329A1 (The University of North Carolina at Chapel Hill, priority 2018, published 2021).
